Data reported in PMC7529893, “Structural basis for substrate recognition and chemical inhibition of oncogenic MAGE ubiquitin ligases” (Nature Communications, 2020).
Read-outs that look alike come from different tables or passages of the source.

Biological target: T1, MAGE-A11:PCF11 interaction (GST-MAGE-A11 MHD and FAM-PCF11_4) (Homo sapiens, UniProt P43364)
T1 construct: GST-MAGE-A11 MHD (human MAGE-A11 MHD amino acid 218-429); made in house; host or cells: E. coli BL21(DE3)
T1 sequence (P43364 218-429): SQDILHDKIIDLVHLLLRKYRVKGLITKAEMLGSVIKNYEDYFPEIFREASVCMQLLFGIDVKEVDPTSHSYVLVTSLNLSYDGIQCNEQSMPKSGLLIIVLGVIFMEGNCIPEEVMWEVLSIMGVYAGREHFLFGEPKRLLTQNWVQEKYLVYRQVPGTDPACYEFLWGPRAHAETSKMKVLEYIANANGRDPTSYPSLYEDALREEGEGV
Test: TR-FRET dose response test of compounds for disruption of MAGE-A11:PCF11 binding
How it was run: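 Competition of compounds against binding of FAM-PCF11_4 peptide to GST-MAGE-A11 MHD, detected with Tb-anti-GST, in 50 mM Tris pH 7.5, 20 mM MgCl2, 0.1 mg/ml BSA, 1 mM DTT. 90 min at ~25 °C; 520/490 nm emission ratio (340 nm excitation) fitted for IC50.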

[1] = Supplementary Data 3, 59 quinoline compounds, read-out: TR-FRET IC50
[2] = Dose response TR-FRET screening of nine scaffold groups against MAGE-A11:PCF11, read-out: consensus IC50

Molecule `COc1ccc(C(F)(F)F)cc1CN(CCCCNc1ccnc2cc(Cl)ccc12)Cc1ccccc1` [SJ000520444-1, COc1ccc(cc1CN(CCCCNc2ccnc3cc(Cl)ccc23)Cc4ccccc4)C(F)(F)F] has an IC50 [1] greater than 70 µM.

For `Clc1ccc2c(NCCCCN(Cc3ccccc3)Cc3csc4ccccc34)ccnc2c1` [SJ000520446-1, Clc1ccc2c(NCCCCN(Cc3ccccc3)Cc4csc5ccccc45)ccnc2c1], the IC50 [1] was greater than 70 µM.

`Cc1ccc(F)cc1CN(CCCCNc1ccnc2cc(Cl)ccc12)Cc1ccccc1` [SJ000520449-1, Cc1ccc(F)cc1CN(CCCCNc2ccnc3cc(Cl)ccc23)Cc4ccccc4] showed an IC50 [1] greater than 70 µM.

For `FC(F)(F)Oc1ccc(CN(CCCCNc2ccnc3cc(Cl)ccc23)Cc2ccccc2)cc1` [SJ000520451-1, FC(F)(F)Oc1ccc(CN(CCCCNc2ccnc3cc(Cl)ccc23)Cc4ccccc4)cc1], the IC50 [1] was greater than 70 µM.

`FC(F)(F)Oc1cccc(CN(CCCCNc2ccnc3cc(Cl)ccc23)Cc2ccccc2)c1` [SJ000520457-1, FC(F)(F)Oc1cccc(CN(CCCCNc2ccnc3cc(Cl)ccc23)Cc4ccccc4)c1] gave an IC50 [1] greater than 70 µM.

`FC(F)(F)Oc1ccccc1CN(CCCCNc1ccnc2cc(Cl)ccc12)Cc1ccccc1` [SJ000520459-1, FC(F)(F)Oc1ccccc1CN(CCCCNc2ccnc3cc(Cl)ccc23)Cc4ccccc4] showed an IC50 [1] greater than 70 µM.

For `CCCN(CCCNc1ccnc2cc(C(F)(F)F)ccc12)CCC(C)(C)C` [SJ000520476-1, CCCN(CCCNc1ccnc2cc(ccc12)C(F)(F)F)CCC(C)(C)C], the IC50 [1] was greater than 70 µM.

Molecule `Clc1ccc2c(NCCCNCc3ccc4[nH]ccc4c3)ccnc2c1` [SJ000520909-2] has an IC50 [2] of 67.1 µM.

Work on `Cc1cc(C)c(CNCCCNc2ccnc3cc(Cl)ccc23)c(C)c1` [SJ000520911-2] yielded an IC50 [2] of 68.1 µM.

`CCCN(CCCNc1ccnc2cc(C(F)(F)F)ccc12)Cc1ccc(CC)cc1` [SJ000521009-2, CCCN(CCCNc1ccnc2cc(ccc12)C(F)(F)F)Cc3ccc(CC)cc3] was tested, and the IC50 [1] was greater than 70 µM.

In the case of `COC(=O)CCCCCNCCCNc1ccnc2cc(Cl)ccc12` [SJ000521021-1], the IC50 [1] is reported as 31.4 µM.

Work on `Clc1ccc2c(NCCCNCc3cc4ccccc4s3)ccnc2c1` [SJ000521032-1, Clc1ccc2c(NCCCNCc3cc4ccccc4s3)ccnc2c1] yielded an IC50 [1] greater than 70 µM.

For `Clc1ccc2c(NCCCNCc3csc4ccccc34)ccnc2c1` [SJ000521033-1, Clc1ccc2c(NCCCNCc3csc4ccccc34)ccnc2c1], the IC50 [1] was greater than 70 µM.

Work on `FC(F)(F)c1ccc2c(NCCCNCc3ccc4[nH]ccc4c3)ccnc2c1` [SJ000521054-1] yielded an IC50 [2] of 0.397 µM.

Work on `FC(F)(F)c1ccc2c(NCCCNCc3cc(Br)cs3)ccnc2c1` [SJ000521056-1, FC(F)(F)c1ccc2c(NCCCNCc3cc(Br)cs3)ccnc2c1] yielded an IC50 [1] greater than 70 µM.

Work on `FC(F)(F)c1ccc2c(NCCCNCc3cc4ccccc4s3)ccnc2c1` [SJ000521060-1, FC(F)(F)c1ccc2c(NCCCNCc3cc4ccccc4s3)ccnc2c1] yielded an IC50 [1] greater than 70 µM.

With `FC(F)(F)c1ccc2c(NCCCNCc3csc4ccccc34)ccnc2c1` [SJ000521061-1, FC(F)(F)c1ccc2c(NCCCNCc3csc4ccccc34)ccnc2c1] the IC50 [1] was greater than 70 µM.

For `COc1ccc(C(F)(F)F)cc1CNCCCNc1ccnc2cc(C(F)(F)F)ccc12` [SJ000521064-1], the IC50 [2] was 69.1 µM.

In the case of `CCc1ccc(CNCCCNc2ccnc3cc(C(F)(F)F)ccc23)cc1` [SJ000521067-1], the IC50 [2] is reported as 40.9 µM.

With `Fc1ccc(CN(CCCCNc2ccnc3cc(Cl)ccc23)Cc2ccccc2)cc1` [SJ000522725-1, Fc1ccc(CN(CCCCNc2ccnc3cc(Cl)ccc23)Cc4ccccc4)cc1] the IC50 [1] was greater than 70 µM.

Molecule `CCCN(CCCNc1c2ccc(Cl)cc2nc2ccc(OC)cc12)Cc1ccc2[nH]ccc2c1` [SJ000522732-2, CCCN(CCCNc1c2ccc(Cl)cc2nc3ccc(OC)cc13)Cc4ccc5[nH]ccc5c4] has an IC50 [1] greater than 70 µM.

With `CCCN(CCCNc1ccnc2cc(Cl)ccc12)Cc1ccc2[nH]ccc2c1` [SJ000522746-2, CCCN(CCCNc1ccnc2cc(Cl)ccc12)Cc3ccc4[nH]ccc4c3] the IC50 [1] was 2.8 µM.

In the case of `CCCN(CCCNc1ccnc2cc(Cl)ccc12)Cc1c(C)cc(C)cc1C` [SJ000522749-1, CCCN(CCCNc1ccnc2cc(Cl)ccc12)Cc3c(C)cc(C)cc3C], the IC50 [1] is reported as greater than 70 µM.

`CCCN(CCCNc1ccnc2cc(Cl)ccc12)Cc1ccc(CC)cc1` [SJ000523001-1, CCCN(CCCNc1ccnc2cc(Cl)ccc12)Cc3ccc(CC)cc3] gave an IC50 [1] greater than 70 µM.

`CCCN(CCCNc1ccnc2cc(Cl)ccc12)Cc1cc(C(F)(F)F)ccc1OC` [SJ000523012-1, CCCN(CCCNc1ccnc2cc(Cl)ccc12)Cc3cc(ccc3OC)C(F)(F)F] showed an IC50 [1] greater than 70 µM.

`CCCN(CCCNc1c2ccc(Cl)cc2nc2ccc(OC)cc12)Cc1c(Cl)ccc(Cl)c1Cl` [SJ000523021-1, CCCN(CCCNc1c2ccc(Cl)cc2nc3ccc(OC)cc13)Cc4c(Cl)ccc(Cl)c4Cl] was tested, and the IC50 [1] was greater than 70 µM.

`CCCN(CCCNc1ccnc2cc(Cl)ccc12)Cc1ccc(-c2ccccc2)cc1` [SJ000523039-1, CCCN(CCCNc1ccnc2cc(Cl)ccc12)Cc3ccc(cc3)c4ccccc4] showed an IC50 [1] greater than 70 µM.

`CCCN(CCCNc1ccnc2cc(Cl)ccc12)Cc1ccc2ccccc2c1` [SJ000523040-1, CCCN(CCCNc1ccnc2cc(Cl)ccc12)Cc3ccc4ccccc4c3] gave an IC50 [1] greater than 70 µM.

`Clc1ccc2c(NCCCNCc3ccc(-c4ccccc4)cc3)ccnc2c1` [SJ000523064-1] showed an IC50 [2] of 34.9 µM.

In the case of `Clc1cccc(-c2ccc(CNCCCNc3ccnc4cc(Cl)ccc34)o2)c1` [SJ000523069-1, Clc1cccc(c1)c2oc(CNCCCNc3ccnc4cc(Cl)ccc34)cc2], the IC50 [1] is reported as greater than 70 µM.

Molecule `CCCN(CCCNc1ccnc2cc(C(F)(F)F)ccc12)Cc1ccccc1OC` [SJ000523072-1, CCCN(CCCNc1ccnc2cc(ccc12)C(F)(F)F)Cc3ccccc3OC] has an IC50 [1] greater than 70 µM.

`CCCCCCN(CCC)CCCNc1ccnc2cc(C(F)(F)F)ccc12` [SJ000523083-1, CCCCCCN(CCC)CCCNc1ccnc2cc(ccc12)C(F)(F)F] was tested, and the IC50 [1] was greater than 70 µM.

`CCOc1ccc(N(C(C)=O)C2=C(N)C(=O)c3ccccc3C2=O)cc1` [SJ000558312-2] showed an IC50 [2] of 65.7 µM.

`NC1=C(Nc2ccccc2)C(=O)c2ccccc2C1=O` [SJ000562543-1] gave an IC50 [2] of 60.8 µM.

Molecule `Cc1ccccc1NC1=C(N)C(=O)c2ccccc2C1=O` [SJ000562551-1] has an IC50 [2] greater than 70 µM.

`Cc1ccc(NC2=C(N)C(=O)c3ccccc3C2=O)cc1` [SJ000562618-1] showed an IC50 [2] of 60.6 µM.

`CCCCCCCCOc1ccc(NC2=C(N)C(=O)c3ccccc3C2=O)cc1` [SJ000562629-1] was tested, and the IC50 [2] was 54.8 µM.

`NC1=C(Nc2ccc(Cl)cc2)C(=O)c2ccccc2C1=O` [SJ000562630-1] gave an IC50 [2] of 53.8 µM.

Molecule `Cc1cc(C)cc(NC2=C(N)C(=O)c3ccccc3C2=O)c1` [SJ000562641-1] has an IC50 [2] of 55 µM.

`COc1cc(NCc2ccc3nc(N)nc(N)c3c2C)cc(OC)c1OC` [SJ000574313-7] gave an IC50 [2] of 9.46 µM.

`CCCN(CCCNc1ccnc2cc(C(F)(F)F)ccc12)Cc1ccc2[nH]ccc2c1` [SJ000575171-1, CCCN(CCCNc1ccnc2cc(ccc12)C(F)(F)F)Cc3ccc4[nH]ccc4c3] gave an IC50 [1] of 33.2 µM.

`Clc1ccc2c(NCCCNCc3ccc[nH]3)ccnc2c1` [SJ000575192-1, Clc1ccc2c(NCCCNCc3ccc[nH]3)ccnc2c1] showed an IC50 [1] of 22.8 µM.

`O=C1c2ccccc2NC(c2ccc(F)cc2F)N1CCCN1CCOCC1` (centres unmarked) [SJ000795275-1] gave an IC50 [2] of 67.8 µM.

For `O=C1c2ccccc2NC(c2ccc(F)c(F)c2)N1CCCN1CCOCC1` (centres unmarked) [SJ000803757-1], the IC50 [2] was 58.4 µM.

`CCCOc1ccc(C2Nc3ccccc3C(=O)N2CCCN2CCOCC2)cc1` (centres unmarked) [SJ000803758-1] was tested, and the IC50 [2] was greater than 70 µM.

With `CCOc1ccc(C2Nc3ccccc3C(=O)N2CCCN2CCOCC2)cc1` (centres unmarked) [SJ000803759-1] the IC50 [2] was 67.7 µM.

`COc1ccc(C2Nc3ccccc3C(=O)N2CCCN2CCOCC2)cc1OC(F)F` (centres unmarked) [SJ000803760-1] gave an IC50 [2] greater than 70 µM.
